Measurements taken from US9695155B2, “Herbicidal substituted pyrimidinyloxy benzene compounds” (E. I. DU PONT DE NEMOURS AND COMPANY, priority 2013, dated 2017).

Columns and labels:
field poppy [1] = experiment: Test D postemergence; type: in vivo, Papaver rhoeas; conditions: Papaver rhoeas, post-emergence
Procedure, shortened: (§1)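 Values are 0–100 visual control ratings (0 none, 100 complete) given 7–21 days after application. Soil for preemergence was silt loam; postemergence plants stood 2–18 cm tall.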

field poppy [2] = experiment: Test D preemergence; type: in vivo, Papaver rhoeas; conditions: Papaver rhoeas, pre-emergence
Procedure, shortened: as §1

spring barley = experiment: Test D preemergence; type: in vivo, Hordeum vulgare; conditions: Hordeum vulgare, pre-emergence
Procedure, shortened: as §1

canarygrass = experiment: Test D postemergence; type: in vivo, Phalaris minor; conditions: Phalaris minor, post-emergence
Procedure, shortened: as §1

fall panicum = experiment: Test E postemergence; type: in vivo, Panicum dichotomiflorum; conditions: Panicum dichotomiflorum, post-emergence, read-out: Plant response rating, Panicum, Fall
Procedure, shortened: (§2)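 Compound in a non-phytotoxic solvent mixture with surfactant was applied preemergence to seeds in silt loam soil, or postemergence to plants 2 to 18 cm tall grown in peat-based potting medium. Plants were kept in a greenhouse for 14 to 21 days, then rated visually against untreated controls on a 0 (no effect) to 100 (complete control) scale.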

windgrass = experiment: Test D postemergence; type: in vivo, Apera spica-venti; conditions: Apera spica-venti, post-emergence
Procedure, shortened: as §1

arrowleaf sida = experiment: Test E postemergence; type: in vivo, Sida rhombifolia; conditions: Sida rhombifolia, post-emergence, read-out: Plant response rating, Arrowleaf Sida
Procedure, shortened: as §2

cocklebur = experiment: Test E preemergence; type: in vivo, Xanthium strumarium; conditions: 125 g ai/ha, scale 0 to 100, 0 no effect, 100 complete control
Procedure, shortened: as §2

dayflower = experiment: Test E postemergence; type: in vivo, Commelina virginica; conditions: Commelina virginica, post-emergence, read-out: Plant response rating, Dayflower, VA
Procedure, shortened: as §2

galium = experiment: Test D preemergence; type: in vivo, Galium aparine; conditions: Galium, pre-emergence
Procedure, shortened: as §1

pigweed = experiment: Test D preemergence; type: in vivo, Amaranthus retroflexus; conditions: Amaranthus retroflexus, pre-emergence
Procedure, shortened: as §1

oilseed rape = experiment: Test D postemergence; type: in vivo, Brassica napus; conditions: Brassica napus, post-emergence
Procedure, shortened: as §1

[3] = Postemergence, 31 g ai/ha, scale 0 to 100
[4] = Postemergence, 62 g ai/ha, scale 0 to 100
[5] = Postemergence, 125 g ai/ha, scale 0 to 100
[6] = postemergence, 8 g ai/ha, scale 0 to 100, 0 no effect, 100 complete control
[7] = postemergence, 16 g ai/ha, scale 0 to 100, 0 no effect, 100 complete control

Clc1cnc(Oc2ccccc2-n2cc(Br)cn2)nc1 [Compound 7, 2-[2-(4-bromo-1H-pyrazol-1-yl)phenoxy]-5-chloropyrimidine]
pest or weed control at 16 g/ha (field poppy [1]; 16 g ai/ha, scale 0-100, read-out: Plant response rating, Field Poppy): 10% | pest or weed control at 31 g/ha (field poppy [1]; 31 g ai/ha, scale 0 to 100 (0 no effect, 100 complete control), read-out: Plant response rating, Field Poppy): 20% | pest or weed control at 62 g/ha (field poppy [1]; 62 g ai/ha, scale 0 to 100 (0 no effect, 100 complete control), read-out: Plant response rating, Field Poppy): 50% | pest or weed control at 125 g/ha (field poppy [1]; 125 g ai/ha, scale 0 to 100 (0 no effect, 100 complete control), read-out: Plant response rating, Field Poppy): 50% | pest or weed control at 250 g/ha (field poppy [1]; 250 g ai/ha, scale 0 to 100 (0 no effect, 100 complete control), read-out: Plant response rating, Field Poppy): 60% | pest or weed control at 16 g/ha (field poppy [2]; 16 g ai/ha, scale 0 (no effect) to 100 (complete control), read-out: Plant response rating, Field Poppy): 0% | pest or weed control at 31 g/ha (field poppy [2]; 31 g ai/ha, scale 0-100, read-out: Plant response rating, Field Poppy): 0% | pest or weed control at 62 g/ha (field poppy [2]; 62 g ai/ha, scale 0-100, read-out: Plant response rating, Field Poppy): 30% | pest or weed control at 125 g/ha (field poppy [2]; 125 g ai/ha, scale 0-100, read-out: Plant response rating, Field Poppy): 60% | pest or weed control at 250 g/ha (field poppy [2]; 250 g ai/ha, scale 0-100, read-out: Plant response rating, Field Poppy): 100% | plant injury at 16 g/ha (spring barley; 16 g ai/ha, scale 0 (no effect) to 100 (complete control), read-out: Plant response rating, Barley, Spring): 0% | plant injury at 31 g/ha (spring barley; 31 g ai/ha, scale 0-100, read-out: Plant response rating, Barley, Spring): 0% | plant injury at 62 g/ha (spring barley; 62 g ai/ha, scale 0-100, read-out: Plant response rating, Barley, Spring): 0% | plant injury at 125 g/ha (spring barley; 125 g ai/ha, scale 0-100, read-out: Plant response rating, Barley, Spring): 0% | plant injury at 250 g/ha (spring barley; 250 g ai/ha, scale 0-100, read-out: Plant response rating, Barley, Spring): 0% | pest or weed control at 16 g/ha (canarygrass; 16 g ai/ha, scale 0-100, read-out: Plant response rating, Canarygrass): 0% | pest or weed control at 31 g/ha (canarygrass; 31 g ai/ha, scale 0 to 100 (0 no effect, 100 complete control), read-out: Plant response rating, Canarygrass): 0% | pest or weed control at 62 g/ha (canarygrass; 62 g ai/ha, scale 0 to 100 (0 no effect, 100 complete control), read-out: Plant response rating, Canarygrass): 5% | pest or weed control at 125 g/ha (canarygrass; 125 g ai/ha, scale 0 to 100 (0 no effect, 100 complete control), read-out: Plant response rating, Canarygrass): 10% | pest or weed control at 250 g/ha (canarygrass; 250 g ai/ha, scale 0 to 100 (0 no effect, 100 complete control), read-out: Plant response rating, Canarygrass): 25% | pest or weed control at 31 g/ha (fall panicum; [3]): 15% | pest or weed control at 62 g/ha (fall panicum; [4]): 50% | pest or weed control at 125 g/ha (fall panicum; [5]): 0% | pest or weed control at 8 g/ha (fall panicum; [6]): 0% | pest or weed control at 16 g/ha (fall panicum; [7]): 0% | pest or weed control at 16 g/ha (windgrass; 16 g ai/ha, scale 0-100, read-out: Plant response rating, Windgrass): 0% | pest or weed control at 31 g/ha (windgrass; 31 g ai/ha, scale 0 to 100 (0 no effect, 100 complete control), read-out: Plant response rating, Windgrass): 0% | pest or weed control at 62 g/ha (windgrass; 62 g ai/ha, scale 0 to 100 (0 no effect, 100 complete control), read-out: Plant response rating, Windgrass): 0% | pest or weed control at 125 g/ha (windgrass; 125 g ai/ha, scale 0 to 100 (0 no effect, 100 complete control), read-out: Plant response rating, Windgrass): 10% | pest or weed control at 250 g/ha (windgrass; 250 g ai/ha, scale 0 to 100 (0 no effect, 100 complete control), read-out: Plant response rating, Windgrass): 25% | pest or weed control at 31 g/ha (arrowleaf sida; [3]): 80% | pest or weed control at 62 g/ha (arrowleaf sida; [4]): 90% | pest or weed control at 125 g/ha (arrowleaf sida; [5]): 95% | pest or weed control at 8 g/ha (arrowleaf sida; [6]): 65% | pest or weed control at 16 g/ha (arrowleaf sida; [7]): 75% | Plant response rating, Cocklebur (cocklebur): 0 | pest or weed control at 31 g/ha (dayflower; [3]): 50% | pest or weed control at 62 g/ha (dayflower; [4]): 70% | pest or weed control at 125 g/ha (dayflower; [5]): 90% | pest or weed control at 8 g/ha (dayflower; [6]): 10% | pest or weed control at 16 g/ha (dayflower; [7]): 40% | pest or weed control at 16 g/ha (galium; 16 g ai/ha, scale 0 (no effect) to 100 (complete control), read-out: Plant response rating, Galium): 0% | pest or weed control at 31 g/ha (galium; 31 g ai/ha, scale 0-100, read-out: Plant response rating, Galium): 0% | pest or weed control at 62 g/ha (galium; 62 g ai/ha, scale 0-100, read-out: Plant response rating, Galium): 20% | pest or weed control at 125 g/ha (galium; 125 g ai/ha, scale 0-100, read-out: Plant response rating, Galium): 30% | pest or weed control at 250 g/ha (galium; 250 g ai/ha, scale 0-100, read-out: Plant response rating, Galium): 40% | pest or weed control at 16 g/ha (pigweed; 16 g ai/ha, scale 0 (no effect) to 100 (complete control), read-out: Plant response rating, Pigweed): 0% | pest or weed control at 31 g/ha (pigweed; 31 g ai/ha, scale 0 (no effect) to 100 (complete control), read-out: Plant response rating, Pigweed): 30% | pest or weed control at 62 g/ha (pigweed; 62 g ai/ha, scale 0-100, read-out: Plant response rating, Pigweed): 90% | pest or weed control at 125 g/ha (pigweed; 125 g ai/ha, scale 0-100, read-out: Plant response rating, Pigweed): 90% | pest or weed control at 250 g/ha (pigweed; 250 g ai/ha, scale 0-100, read-out: Plant response rating, Pigweed): 90% | plant injury at 16 g/ha (oilseed rape; 16 g ai/ha, scale 0-100, read-out: Plant response rating, Oilseed Rape): 75% | plant injury at 31 g/ha (oilseed rape; 31 g ai/ha, scale 0 to 100 (0 no effect, 100 complete control), read-out: Plant response rating, Oilseed Rape): 80% | plant injury at 62 g/ha (oilseed rape; 62 g ai/ha, scale 0 to 100 (0 no effect, 100 complete control), read-out: Plant response rating, Oilseed Rape): 95% | plant injury at 125 g/ha (oilseed rape; 125 g ai/ha, scale 0 to 100 (0 no effect, 100 complete control), read-out: Plant response rating, Oilseed Rape): 100% | plant injury at 250 g/ha (oilseed rape; 250 g ai/ha, scale 0 to 100 (0 no effect, 100 complete control), read-out: Plant response rating, Oilseed Rape): 100%
